Reference: US20220404374A1, “METHOD FOR DETERMINING WHETHER OR NOT A SUBJECT HAS A PARKINSONIAN CONDITION” (UNIVERSITE DU LUXEMBOURG, priority 2019, published 2022)

Assays:
[1] = system: wildtype mice; assay: adhesive removal test in mice after 2-HP injection into the brain; format: in vivo; settings: higher 2-HP concentrations injected into the brain, 15 days post-injection, vs PBS
Description: The in vivo work testing for effects of 2-HP in a mouse model lead to results from a small-scale 15-day experiment. In this experiment, 2-HP was injected at several concentrations (5, 50 and 100 mM) into the brain of transgenic mice overexpressing human alpha-synuclein, and of wildtype control mice.

[2] = system: enteric neurons; assay: toxicity of 2-HP in enteric neurons (MTT cell viability assay); format: cell-based
Description: Enteric neurons were cultured in differentiation medium, consisting on Neurobasal (Invitrogen, 21103049) supplemented with 1:200 N2 (Invitrogen, 17502048), 1:100 L-Glutamine (Invitrogen, 25030-024), 1:100 B-27 without Vitamin A (Life Technologies, 12587-010), 1:100 Penicillin/Streptomycin (Invitrogen, 15140122), 25 ng/mL GDNF (Peprotech, 450-10) and 100 μM Ascorbic Acid (Sigma, A5960). Cells were cultured for 21 days in a 6-well plate, then detached with Accutase (Sigma, A6964), and replated into a 96-well plate. Cells were maintained under differentiating conditions until day 31, when they were treated with increasing concentrations of 2-hydroxypyridine (Sigma, H56800). Tested concentrations were as follows: 1 μM, 3 μM, 6 μM, 10 μM, 30 μM, 60 μM, 100 μM, 300 μM, 600 μM, 1 mM and 3 mM.
2-hydroxypyridine was reconstituted to 10 mM in the differentiation medium described above.
Cells were treated for 24 h, then cell viability was assessed performing a Tetrazolium (MTT) assay. Thiazolyl Blue tetrazolium Bromide (Sigma, M5655) was reconstituted to a 5 mg/mL solution in differentiation media and filtered. 10 μL of the solution were then added to every well containing 100 μL of media. Plate was incubated for 2 h in a normal incubator (37° C., 5% CO2). […] Cells were disaggregated by pipetting vigorously and absorbance was read at 570 nm, using the microplate Cytation 5M reader (Biotek).

[3] = system: IL-1b mRNA expression; assay: IL-1b mRNA expression (qPCR) in murine bone-marrow derived macrophages; format: cell-based; settings: 10 mM 2-HP, murine BMDMs
Description: NLRP3 inflammasome activation is thought to play a role in the pathogenesis of neurodegenerative disorders, and increased levels of this inflammasome and of the related cytokine IL-1b have been detected in Parkinson's patients (Guan & Han, 2020). […] Inflammasome activation was evaluated with qPCR for IL-1b expression (normalized to β-actin), considering the fold change relative to 0 mM 2-HP of each time point.

[4] = system: HiTox strains of yeast expressing human alpha-synuclein; assay: toxicity assays of 2-HP in HiTox strains of yeast expressing human alpha-synuclein (growth phenotyping); format: cell-based
Description: Yeast cells were grown in synthetic complement (SC) media containing 6.7 g/L yeast nitrogen base without amino acids, 5 g/L ammonium sulfate supplemented with 2 g/L SC. Media was autoclaved and the carbon source (8% raffinose or galactose) was added to a final concentration of 2%.
Four fresh single colonies of the Hitox strain and its respective control strain were inoculated from SC-2% glucose plates into 5 mL SC-2% raffinose and incubated overnight with shaking (200 rpm) at 30° C. After ≈20 h, overnight cultures were diluted to OD 0.5 and 2 μL of the yeast cultivation was added to 78 μL drug containing media to a final optical density of 0.0125 in a 384-well microplate. 2-HP was diluted in SC-2% raffinose/galactose and tested at different concentrations (1-100 mM). Finally, the plates are measured in a microplate reader (TECAN™ Infinite M200Pro), at an interval of 10 minutes during 72 h at 30° C. Yeast growth phenotyping was performed as previous described (Jung et al. 2015). Final biomass was corrected using the GATHODE software (Jung et al. 2015). The OD600 at 48 h was taken for the quantification.

[5] = control strain, higher concentration of 2-HP (FIG. 3C)

Oc1ccccn1 [2-HP, 2-hydroxypyridine]
performance in the adhesive removal test (sensorimotor function) [1]: perform worse
toxicity on enteric neurons at 3 mM [2]: significant changes
LD50 ([2]; enteric neurons, 24 h treatment, MTT): around 3 mM
increase in IL-1b mRNA (fold change relative to 0 mM 2-HP, normalized to β-actin) ([3]; 3 hours): 3.2 fold
increase in IL-1b mRNA (fold change relative to 0 mM 2-HP, normalized to β-actin) ([3]; 24 hours): 1.5 fold
dose at which 2-HP is selectively toxic to transgenic alpha-synuclein expressing yeast ([4]; HiTox yeast expressing human alpha-synuclein vs control strain): 1 mM
lag time of growth curve [4, 5]: prolonged
yield of growth curve [4, 5]: unaffected
toxic dose-response, galactose ([4]; galactose, alpha-synuclein induced (FIG. 3B), HiTox strains vs control strain): A toxic dose-response can be observed in the HiTox strains, but not in the control strain
toxic dose-response, raffinose ([4]; raffinose, alpha-synuclein not induced (FIG. 3A)): A toxic dose-response can be observed
